In paper PMC10709440, “High-throughput ligand profile characterization in novel cell lines expressing seven heterologous insect olfactory receptors for the detection of volatile plant biomarkers” (Scientific Reports, 2023):
“And” between values parts separate entries of the source, which are not always exact repeats. Equal entries are not always repeated.

What was measured:
[1] = biological target: T1, Drosophila OR10a (Drosophila melanogaster, UniProt Q9VYZ1); assay: Calcium ion fluorescence (GCaMP6) assay, OR10a stable HEK293 cell line; format: cell-based; settings: for DF norm AVERAGE OR10a: threshold 0.05, below shown as 0
T1 construct: expressed in transfected cells
T1 sequence (Q9VYZ1 1-406): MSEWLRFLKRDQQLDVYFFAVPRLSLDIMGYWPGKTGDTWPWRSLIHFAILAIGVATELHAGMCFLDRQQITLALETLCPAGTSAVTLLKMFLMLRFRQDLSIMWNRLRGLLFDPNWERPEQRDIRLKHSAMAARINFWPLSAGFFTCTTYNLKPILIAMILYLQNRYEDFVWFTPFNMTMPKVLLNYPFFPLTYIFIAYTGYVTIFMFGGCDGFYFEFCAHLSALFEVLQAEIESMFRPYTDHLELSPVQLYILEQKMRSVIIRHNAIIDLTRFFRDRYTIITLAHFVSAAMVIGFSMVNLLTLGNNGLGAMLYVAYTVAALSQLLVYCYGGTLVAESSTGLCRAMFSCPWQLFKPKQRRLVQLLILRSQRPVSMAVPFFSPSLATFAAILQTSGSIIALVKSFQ
T1 sequence (Q9VNB5 1-486 partner): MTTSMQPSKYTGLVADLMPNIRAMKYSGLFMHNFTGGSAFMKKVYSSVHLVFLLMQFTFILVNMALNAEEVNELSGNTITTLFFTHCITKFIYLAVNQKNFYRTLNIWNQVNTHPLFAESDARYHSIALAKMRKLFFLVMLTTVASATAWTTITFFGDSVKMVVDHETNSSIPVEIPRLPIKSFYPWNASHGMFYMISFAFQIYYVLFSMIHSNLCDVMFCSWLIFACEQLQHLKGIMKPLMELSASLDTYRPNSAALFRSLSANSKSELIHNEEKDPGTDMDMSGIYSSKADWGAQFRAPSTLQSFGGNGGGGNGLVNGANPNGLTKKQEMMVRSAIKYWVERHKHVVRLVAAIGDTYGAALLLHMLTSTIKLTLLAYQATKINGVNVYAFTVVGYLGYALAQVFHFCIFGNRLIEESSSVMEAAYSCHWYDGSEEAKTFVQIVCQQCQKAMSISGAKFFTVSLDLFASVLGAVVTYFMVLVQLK
Summary of the method: (§1)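 HEK293 lines stably expressing each Drosophila OR with GCaMP6, doxycycline-induced (1 μg/mL) 48 or 72 h. Fluorescence recorded 5 s baseline then 30 s after VOC injection at pH 7.3; ΔF=(FMAX−F0)/F0, normalized to 50 µM VUAA1 response per line, triplicate wells averaged; concentration series 0.01–100 μM.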

[2] = biological target: T2, Drosophila OR47a (Drosophila melanogaster, UniProt P81921); assay: Calcium ion fluorescence (GCaMP6) assay, OR47a stable HEK293 cell line; format: cell-based; settings: for Average response: mean of biological replicates
T2 construct: expressed in transfected cells
T2 sequence (P81921 1-385): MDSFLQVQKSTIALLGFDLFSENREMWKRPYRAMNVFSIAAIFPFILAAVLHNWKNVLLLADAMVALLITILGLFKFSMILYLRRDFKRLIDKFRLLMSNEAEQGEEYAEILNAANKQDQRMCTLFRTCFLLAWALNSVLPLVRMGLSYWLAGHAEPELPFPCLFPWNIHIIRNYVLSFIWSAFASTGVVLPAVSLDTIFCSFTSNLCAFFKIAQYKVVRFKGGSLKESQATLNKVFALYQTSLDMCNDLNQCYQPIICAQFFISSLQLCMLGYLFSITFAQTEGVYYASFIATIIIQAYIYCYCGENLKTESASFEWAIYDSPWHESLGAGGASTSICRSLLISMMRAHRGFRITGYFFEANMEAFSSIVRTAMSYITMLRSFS
T2 sequence (Q9VNB5 1-486 partner): T1 sequence (Q9VNB5 1-486 partner)
Summary of the method: as §1

[3] = OR47a cell line, odorant cc. 1 µM
[4] = OR47a cell line, odorant cc. 10 µM
[5] = OR47a cell line, odorant cc. 100 µM
[6] = HEK293, read-out: OR47a Average response (VUAA1-normalized)

CC1=CCC[C@@]2(C)[C@@H]3CC[C@]12CC3(C)C [(−)-α-neoclovene]
OR10a Average response (VUAA1-normalized) ([1]; 1 μM VOC, 50 μM VUAA1 = 1, responses not exceeding 0.05 considered 0): 0.00
OR10a Average response (VUAA1-normalized) ([1]; 10 μM VOC, 50 μM VUAA1 = 1, responses not exceeding 0.05 considered 0): 0.13
OR10a Average response (VUAA1-normalized) ([1]; 100 μM VOC, 50 μM VUAA1 = 1, responses not exceeding 0.05 considered 0): 0.12
OR10a response (VUAA1-normalized response) ([1]; VOC concentration 1 μM): 0.00
OR10a response (VUAA1-normalized response) ([1]; VOC concentration 10 μM): 0.13
OR10a response (VUAA1-normalized response) ([1]; VOC concentration 100 μM): 0.12
Average response [2, 3]: 0.00
Average response [2, 4]: 0.00
Average response [2, 5]: 0.018
OR47a response (VUAA1-normalized response) ([2]; VOC concentration 1 μM): 0.00
OR47a response (VUAA1-normalized response) ([2]; VOC concentration 10 μM): 0.00
OR47a response (VUAA1-normalized response) ([2]; VOC concentration 100 μM): 0.00
DF norm AVERAGE OR47a ([2]; concentration 1, normalized fluorescence change, values below 0.05 threshold given as 0): 0
DF norm AVERAGE OR47a ([2]; concentration 10, normalized fluorescence change, values below 0.05 threshold given as 0): 0
DF norm AVERAGE OR47a ([2]; concentration 100, normalized fluorescence change, values below 0.05 threshold given as 0): 0

CCCCCOC(C)=O [pentyl acetate]
activation at 1 µM ([1]; HEK293, 1 μM VOC, 50 μM VUAA1 = 1, responses not exceeding 0.05 considered 0, read-out: OR10a Average response (VUAA1-normalized)): 11%
activation at 10 µM ([1]; HEK293, 10 μM VOC, 50 μM VUAA1 = 1, responses not exceeding 0.05 considered 0, read-out: OR10a Average response (VUAA1-normalized)): 8%
activation at 100 µM ([1]; HEK293, 100 μM VOC, 50 μM VUAA1 = 1, responses not exceeding 0.05 considered 0, read-out: OR10a Average response (VUAA1-normalized)): 30%
OR10a response (VUAA1-normalized) at 1 μM ([1]; OR10a cell line, VOC concentration 1 μM): 0.11
OR10a response (VUAA1-normalized) at 10 μM ([1]; OR10a cell line, VOC concentration 10 μM): 0.08
OR10a response (VUAA1-normalized) at 100 μM ([1]; OR10a cell line, VOC concentration 100 μM): 0.30
DF norm AVERAGE OR10a ([1]; ligand concentration 1 (unit not given)): 0.109
DF norm AVERAGE OR10a ([1]; ligand concentration 10 (unit not given)): 0.07718
DF norm AVERAGE OR10a ([1]; ligand concentration 100 (unit not given)): 0.3011
EC50 ([2]; AVERAGE EC50, the 14th table, corresponds to average LOG EC50, given with 95% confidence interval): 2220 nM
EC50 ([2]; EC50, AVERAGE of replicate fits, the 14th table, arithmetic average, N 5): 2410 nM
EC50 ([2]; EC50, OR47a cell line, fitted Hill equation, Hill coefficient constrained to 1, maximal response max 1): 2220 nM
EC50 ([2]; EC50, fitted average curve, the 14th table, fit to the average curve, n 0.854956): 2560 nM
EC50 ([2]; EC50, fitted parameter per biological replicate, the 14th table, individual replicate fits): 1810 nM and 2840 nM and 3360 nM and 2980 nM and 1050 nM
activation at 1 µM [2, 6]: 41%
activation at 10 µM [2, 6]: 85%
activation at 100 µM [2, 6]: 76%
Emax ([2]; HEK293, read-out: VUAA1 normalized MAX response): 96%
EC50 ([2]; LOG EC50, AVERAGE of replicate fits, the 14th table, N 5): 2220 nM
EC50 ([2]; LOG EC50, fitted parameter per biological replicate, the 14th table, OR47a D-R pentyl acetate, individual replicate fits, MIN 0, n 1): 1810 nM and 2840 nM and 3360 nM and 2980 nM and 1050 nM
OR47a response (VUAA1-normalized) at 1 μM ([2]; OR47a cell line, VOC concentration 1 μM): 0.41
OR47a response (VUAA1-normalized) at 10 μM ([2]; OR47a cell line, VOC concentration 10 μM): 0.85
OR47a response (VUAA1-normalized) at 100 μM ([2]; OR47a cell line, VOC concentration 100 μM): 0.76
Average response [2, 3]: 0.41
Average response [2, 4]: 0.85
Average response [2, 5]: 0.76
DF norm AVERAGE OR47a ([2]; ligand concentration 1 (unit not given), threshold 0.05, below shown as 0): 0.4101
DF norm AVERAGE OR47a ([2]; ligand concentration 10 (unit not given), threshold 0.05, below shown as 0): 0.8532
DF norm AVERAGE OR47a ([2]; ligand concentration 100 (unit not given), threshold 0.05, below shown as 0): 0.7595
dose-response, response per biological replicate ([2]; the 14th table, VOC concentration 0.15): 0 (2×) and 0.08996
dose-response, AVERAGE response ([2]; the 14th table, VOC concentration 0.15, N 3): 0.02999
dose-response, response per biological replicate ([2]; the 14th table, VOC concentration 0.3): 0 (2×) and 0.06871 and 0.1596
dose-response, AVERAGE response ([2]; the 14th table, VOC concentration 0.3, N 4): 0.05709
dose-response, response per biological replicate ([2]; the 14th table, VOC concentration 0.6): 0.1609 and 0.1169 and 0.06805 and 0.08558 and 0.2252
dose-response, AVERAGE response ([2]; the 14th table, VOC concentration 0.6, N 5): 0.1313
dose-response, response per biological replicate ([2]; the 14th table, VOC concentration 1.25): 0.1915 and 0.1656 and 0.1715 and 0.5641
dose-response, AVERAGE response ([2]; the 14th table, VOC concentration 1.25, N 4): 0.2732
dose-response, response per biological replicate ([2]; the 14th table, VOC concentration 2.5): 0.3991 and 0.4483 and 0.3729 and 0.3818 and 0.7224
dose-response, AVERAGE response ([2]; the 14th table, VOC concentration 2.5, N 5): 0.4649
dose-response, response per biological replicate ([2]; the 14th table, VOC concentration 5): 0.9001 and 0.6438 and 0.6113 and 0.6294 and 0.9303
dose-response, AVERAGE response ([2]; the 14th table, VOC concentration 5, N 5): 0.743
dose-response, response per biological replicate ([2]; the 14th table, VOC concentration 10): 0.8372 and 0.7794 and 0.895 and 0.7979 and 1.027
dose-response, AVERAGE response ([2]; the 14th table, VOC concentration 10, N 5): 0.8674
dose-response, response per biological replicate ([2]; the 14th table, VOC concentration 20): 1.202 and 0.8226 and 0.9992 and 0.8736 and 1.052
dose-response, AVERAGE response ([2]; the 14th table, VOC concentration 20, N 5): 0.99
dose-response, response per biological replicate ([2]; the 14th table, VOC concentration 40): 1.114 and 0.9003 and 0.922 and 0.9538 and 0.9871
dose-response, AVERAGE response ([2]; the 14th table, VOC concentration 40, N 5): 0.9754
dose-response, response per biological replicate ([2]; the 14th table, VOC concentration 60): 1.02 and 0.8294 and 1.116 and 0.8263 and 0.955
dose-response, AVERAGE response ([2]; the 14th table, VOC concentration 60, N 5): 0.9493
dose-response, response per biological replicate ([2]; the 14th table, VOC concentration 80): 0.8413 and 0.8664 and 0.788 and 0.8411
dose-response, AVERAGE response ([2]; the 14th table, VOC concentration 80, N 4): 0.8342
dose-response, response per biological replicate ([2]; the 14th table, VOC concentration 100): 0.8402 and 0.9595 and 0.7641 and 0.7857
dose-response, AVERAGE response ([2]; the 14th table, VOC concentration 100, N 4): 0.8374
AVERAGE MAX ([2]; the 14th table, average of replicate fits, N 5): 0.9609
MAX, fitted average curve ([2]; the 14th table, fit to the average curve, n 0.854956): 1
MAX, fitted parameter per biological replicate ([2]; the 14th table, individual replicate fits): 1 (2×) and 0.9126 and 0.907 and 0.9849
